Test results as given in publication PMC7999182, “Interaction of Remdesivir with Clinically Relevant Hepatic Drug Uptake Transporters” (Pharmaceutics, 2021).

Columns and labels:
[1] = target: T1, OATP1B1*5 (Homo sapiens, UniProt Q9Y6L6, V174A); test: Remdesivir uptake into HEK cells stably expressing OATP1B1*5 vs vector control; type: in vitro ADME; details: 0.5 µM remdesivir, 10 min
T1 construct: expressed in transfected cells
T1 sequence (Q9Y6L6 1-691 V174A): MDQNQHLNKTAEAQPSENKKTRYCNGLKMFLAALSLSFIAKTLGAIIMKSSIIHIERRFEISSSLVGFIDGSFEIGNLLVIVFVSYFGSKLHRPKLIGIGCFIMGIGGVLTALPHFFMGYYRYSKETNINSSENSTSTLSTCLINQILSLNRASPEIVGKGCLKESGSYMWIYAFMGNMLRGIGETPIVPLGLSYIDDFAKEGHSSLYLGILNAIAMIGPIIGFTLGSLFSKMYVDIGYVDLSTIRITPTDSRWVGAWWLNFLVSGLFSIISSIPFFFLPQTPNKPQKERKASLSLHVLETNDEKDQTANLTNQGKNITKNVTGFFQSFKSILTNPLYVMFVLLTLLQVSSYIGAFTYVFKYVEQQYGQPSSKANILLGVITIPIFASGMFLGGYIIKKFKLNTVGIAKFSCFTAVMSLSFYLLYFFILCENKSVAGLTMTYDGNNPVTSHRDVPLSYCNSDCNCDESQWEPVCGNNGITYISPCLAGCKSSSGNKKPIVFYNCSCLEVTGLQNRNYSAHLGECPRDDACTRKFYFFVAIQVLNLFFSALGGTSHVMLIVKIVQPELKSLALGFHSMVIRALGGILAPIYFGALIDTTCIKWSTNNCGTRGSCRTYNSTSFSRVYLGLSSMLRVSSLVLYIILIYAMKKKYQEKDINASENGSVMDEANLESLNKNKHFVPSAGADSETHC
Source text: (§1) Generation, cultivation and characterization of human embryonic kidney (HEK) cells stably expressing OATP1B1 refseq (=OATP1B1*1a), OATP1B1*1b, OATP1B1*5 and OATP1B1*15 [18], OATP1B3 [19], OATP2B1 [13] and OCT1 [20] have been described previously. OATP1B1 cells were cultivated in minimal essential medium (Life Technologies, Paisley, UK) and OATP1B3, OATP2B1 and OCT1 cells were cultivated in Dulbecco’s modified Eagle medium (Sigma, Darmstadt, Germany). Cultivation media were supplemented with 10% fetal calf serum, 100 U/mL penicillin and 100 µg/mL streptomycin. Cells were grown at 37 °C and 5% CO2. Functionality of the cells was confirmed by measuring uptake of prototypic substrates (see Section 2.3 and supplementary material).
(§2) Uptake assays were conducted at 37 °C according to previously described methods. For this, cells were seeded in 24-well plates (320,000 cells/well) and cultured for 2 days. Cells were then incubated for a further 24 h in culture medium with 5 mM butyrate (OATP1B3, OATP2B1, OCT1) or 10 mM butyrate (OATP1B1) to increase protein levels of recombinant transporters. […]
(§3) Remdesivir was determined by UHPLC-MS-MS analysis on an Agilent 1290 infinity UHPLC system coupled to an Agilent 6495B triple quadrupole mass spectrometer (Agilent, Waldbronn, Germany) similar to a recently published method. […]

[2] = tested on: vector-transfected control cells; test: Remdesivir accumulation into vector-transfected control HEK cells; type: in vitro ADME, human; details: 5 µM remdesivir, 10 min
Source text: as §1, §2, §3

[3] = cited from earlier work

For `CCC(CC)COC(=O)[C@H](C)N[P@](=O)(OC[C@H]1O[C@@](C#N)(c2ccc3c(N)ncnn23)[C@H](O)[C@@H]1O)Oc1ccccc1` [Remdesivir], the “Uptake vs vector-transfected control cells” value [1] is given as “significantly lower uptake”, the “Accumulation into control cells” value [2] is given as “high remdesivir accumulation” and the peak plasma concentration ([3]; 30 min after iv administration of 200 mg remdesivir for 30 min) is given as ~10 µM. For the same compound, the t1/2 [3] was 1 h and the Cmax ([3]; intravenous 100 mg remdesivir, healthy adults) was 3.7 µM.
